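Assay format: 96-well plates, 48-hour exposure. Definition used: TGI = concentration required for complete inhibition of growth.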
How the values were obtained:
Test in all cases: DTP human tumour cell line panel, 48 h
NCI-H460 lung = system: NCI-H460 lung
RPMI-8226 leukemia = system: RPMI-8226 leukemia
OVCAR-8 ovarian = system: OVCAR-8 ovarian
786-0 renal = system: 786-0 renal
SNB-78 CNS = system: SNB-78 CNS
NCI-H522 lung = system: NCI-H522 lung
DMS 114 small cell lung = system: DMS 114 small cell lung
MALME-3M melanoma = system: MALME-3M melanoma
RXF 393 renal = system: RXF 393 renal
SF-268 CNS = system: SF-268 CNS
SK-MEL-28 melanoma = system: SK-MEL-28 melanoma
ACHN renal = system: ACHN renal
A498 renal = system: A498 renal
NCI-H23 lung = system: NCI-H23 lung
SF-539 CNS = system: SF-539 CNS
HCT-15 colon = system: HCT-15 colon
COLO 205 colon = system: COLO 205 colon
SK-MEL-5 melanoma = system: SK-MEL-5 melanoma
TK-10 renal = system: TK-10 renal
DMS 273 small cell lung = system: DMS 273 small cell lung
SK-OV-3 ovarian = system: SK-OV-3 ovarian
MOLT-4 leukemia = system: MOLT-4 leukemia
HT29 colon = system: HT29 colon
HCT-116 colon = system: HCT-116 colon
NCI-H226 lung = system: NCI-H226 lung
U251 CNS = system: U251 CNS
HCC-2998 colon = system: HCC-2998 colon
SNB-75 CNS = system: SNB-75 CNS
IGROV1 ovarian = system: IGROV1 ovarian
SF-295 CNS = system: SF-295 CNS
CAKI-1 renal = system: CAKI-1 renal
OVCAR-5 ovarian = system: OVCAR-5 ovarian
M19-MEL melanoma = system: M19-MEL melanoma
SR leukemia = system: SR leukemia
EKVX NSCLC = system: EKVX NSCLC
A549 NSCLC = system: A549 NSCLC
SW-620 colon = system: SW-620 colon
UACC-257 melanoma = system: UACC-257 melanoma
SNB-19 CNS = system: SNB-19 CNS
OVCAR-3 ovarian = system: OVCAR-3 ovarian
LOX IMVI melanoma = system: LOX IMVI melanoma
UO-31 renal = system: UO-31 renal
M14 melanoma = system: M14 melanoma
K-562 leukemia = system: K-562 leukemia
UACC-62 melanoma = system: UACC-62 melanoma
SN12C renal = system: SN12C renal
XF 498 CNS = system: XF 498 CNS
OVCAR-4 ovarian = system: OVCAR-4 ovarian
CCRF-CEM leukemia = system: CCRF-CEM leukemia
HOP-18 NSCLC = system: HOP-18 NSCLC
RXF-631 renal = system: RXF-631 renal
KM20L2 colon = system: KM20L2 colon
DLD-1 colon = system: DLD-1 colon
LXFL 529 NSCLC = system: LXFL 529 NSCLC
SK-MEL-2 melanoma = system: SK-MEL-2 melanoma
HOP-92 NSCLC = system: HOP-92 NSCLC
KM12 colon = system: KM12 colon
HL-60(TB) leukemia = system: HL-60(TB) leukemia
HOP-62 NSCLC = system: HOP-62 NSCLC

Q: Cc1cccc(C(C)C)c1NC(=O)CC1C(=O)Nc2ccccc2S1(=O)=O (centres undefined) was tested. Which TGI (NCI-H460 lung) did it give?
A: 35.2 µM

Q: And the TGI (RPMI-8226 leukemia)?
A: 23 µM

Q: What about the TGI (OVCAR-8 ovarian) of the same compound?
A: > 59 µM

Q: What about the TGI (786-0 renal) of the same compound?
A: 39.5 µM

Q: What about the TGI (SNB-78 CNS) of the same compound?
A: > 79.3 µM

Q: And the TGI (NCI-H522 lung)?
A: 31.5 µM

Q: And the TGI (DMS 114 small cell lung)?
A: 45.5 µM

Q: What about the TGI (MALME-3M melanoma) of the same compound?
A: 50.9 µM

Q: And the TGI (RXF 393 renal)?
A: 25.8 µM

Q: And the TGI (SF-268 CNS)?
A: 29.5 µM

Q: And the TGI (SK-MEL-28 melanoma)?
A: > 56 µM

Q: And the TGI (ACHN renal)?
A: > 58.2 µM

Q: What about the TGI (A498 renal) of the same compound?
A: > 54.2 µM

Q: What about the TGI (NCI-H23 lung) of the same compound?
A: 31.3 µM

Q: What about the TGI (SF-539 CNS) of the same compound?
A: 14.5 µM

Q: What about the TGI (HCT-15 colon) of the same compound?
A: 19.5 µM

Q: What about the TGI (COLO 205 colon) of the same compound?
A: > 100 µM

Q: What about the TGI (SK-MEL-5 melanoma) of the same compound?
A: 46.4 µM

Q: And the TGI (TK-10 renal)?
A: 70.1 µM

Q: And the TGI (DMS 273 small cell lung)?
A: 20.5 µM

Q: What about the TGI (SK-OV-3 ovarian) of the same compound?
A: > 100 µM

Q: What about the TGI (MOLT-4 leukemia) of the same compound?
A: 10.2 µM

Q: What about the TGI (HT29 colon) of the same compound?
A: 26.8 µM

Q: What about the TGI (HCT-116 colon) of the same compound?
A: > 46.9 µM

Q: What about the TGI (NCI-H226 lung) of the same compound?
A: 49.9 µM

Q: And the TGI (U251 CNS)?
A: > 51.4 µM

Q: What about the TGI (HCC-2998 colon) of the same compound?
A: > 56.2 µM

Q: What about the TGI (SNB-75 CNS) of the same compound?
A: > 69 µM

Q: What about the TGI (IGROV1 ovarian) of the same compound?
A: > 51 µM

Q: And the TGI (SF-295 CNS)?
A: 67.1 µM

Q: What about the TGI (CAKI-1 renal) of the same compound?
A: > 50 µM

Q: What about the TGI (OVCAR-5 ovarian) of the same compound?
A: > 73.1 µM

Q: And the TGI (M19-MEL melanoma)?
A: > 57.4 µM

Q: What about the TGI (SR leukemia) of the same compound?
A: 4.32 µM

Q: What about the TGI (EKVX NSCLC) of the same compound?
A: > 53.8 µM

Q: And the TGI (A549 NSCLC)?
A: 39.3 µM

Q: And the TGI (SW-620 colon)?
A: 30.4 µM

Q: What about the TGI (UACC-257 melanoma) of the same compound?
A: > 70.8 µM

Q: What about the TGI (SNB-19 CNS) of the same compound?
A: > 68 µM

Q: And the TGI (OVCAR-3 ovarian)?
A: 38.5 µM

Q: And the TGI (LOX IMVI melanoma)?
A: > 51.8 µM

Q: What about the TGI (UO-31 renal) of the same compound?
A: 84.4 µM

Q: What about the TGI (M14 melanoma) of the same compound?
A: > 64.2 µM

Q: What about the TGI (K-562 leukemia) of the same compound?
A: 10.3 µM

Q: What about the TGI (UACC-62 melanoma) of the same compound?
A: > 51.1 µM

Q: What about the TGI (SN12C renal) of the same compound?
A: > 59.4 µM

Q: And the TGI (XF 498 CNS)?
A: > 59.9 µM

Q: And the TGI (OVCAR-4 ovarian)?
A: 29 µM

Q: What about the TGI (CCRF-CEM leukemia) of the same compound?
A: 30.2 µM

Q: What about the TGI (HOP-18 NSCLC) of the same compound?
A: 70.8 µM

Q: And the TGI (RXF-631 renal)?
A: > 52.6 µM

Q: What about the TGI (KM20L2 colon) of the same compound?
A: 51.5 µM

Q: And the TGI (DLD-1 colon)?
A: > 45.6 µM

Q: And the TGI (LXFL 529 NSCLC)?
A: 35.5 µM

Q: And the TGI (SK-MEL-2 melanoma)?
A: > 62 µM

Q: What about the TGI (HOP-92 NSCLC) of the same compound?
A: 30.7 µM

Q: And the TGI (KM12 colon)?
A: 73.9 µM

Q: What about the TGI (HL-60(TB) leukemia) of the same compound?
A: 28.4 µM

Q: What about the TGI (HOP-62 NSCLC) of the same compound?
A: > 100 µM

Reference: PubChem BioAssay (NCI)
